Patent publication US6096743A, “1,2,3,4-tetrahydroquinoxalinedione derivative” (Yamanouchi Pharmaceuticals Co., Ltd., priority 1994, dated 2000)
Values after ≈ are worked out from the molar mass of the structure shown. Read-outs that look alike come from different tables or passages of the source.

Experiments:
AMPA/kainate receptor = details: cited from earlier work
neuronal culture system = details: substance alone; cited from earlier work
[1] = tested on: experimental animal models suffering from cerebral ischemia; details: in vivo; cited from earlier work
AMPA receptor = assay: inhibitory activity against the binding of [3H]-AMPA (rat cerebral membrane); details: about 45 nM [3H]-AMPA, 45 minutes on ice water, non-specific: 10 μM quisqualic acid, read-out: Ki value, inhibition of [3H]-AMPA binding
Procedure: Inhibitory activity against the binding with [^3 H]-AMPA, kainic acid neurotoxicity and audiogenic seizure were confirmed as follows:
1) Measurement of inhibitory activity against the binding of [^3 H]-AMPA:
On ice water, 0.5 ml in total of a reaction liquid containing about 45 nM [^3 H]-AMPA [2-amino-3-(3-hydroxy-5-methyl-4-isoxazolyl)propionic acid], about […] of a sample of a rat cerebral membrane and a test compound was reacted for 45 minutes. The amount of [^3 H]-AMPA bound to the AMPA receptor was measured by the filtration method. A portion substituted by 10 μM quisqualic acid in the total bound amount was taken as the specific binding amount. Evaluation of the test compound was carried out by determining the binding inhibition ratio against the specific binding.

[2] = tested on: hippocampal neuron (kainic acid neurotoxicity); assay: inhibitory activity against kainic acid neurotoxicity in primary culture of hippocampal neurons (LDH release); type: cell-based; details: 300 μM kainic acid, 24 hours, fetal rat hippocampal neuron, read-out: IC50, inhibition of neuronal death caused by kainic acid
Procedure: 2) Measurement of inhibitory activity against kainic acid neurotoxicity:
Inhibitory action of the invention compound against kainic acid neurotoxicity was investigated using the primary culture system of the hippocampal neuron of a fetal rat.
(1) Incubation conditions
The hippocamp was cut out from a brain of the 18 to 20-day-old fetal rat and was subjected to enzyme treatment with papain and DNase I to disperse the cells. The cells so obtained were floated on MEM containing 10% serum and then were inoculated on a 48-well plate treated in advance with poly-I-lysine in a concentration of 4×10^5 cell/cm^2. Twenty four hours later, the serum was replaced by a serum-free medium. The medium replacement was carried out twice a week. The cells which were cultivated for at least 6 days were provided for the following test.
(2) Inhibition against kainic acid neurotoxicity
Neurotoxicity was expressed by an activity of lactate dehydrogenase released in the culture medium by the cell death. As a control, neurons which were exposed to a serum-free medium containing 300 μM kainic acid for 24 hours were used. Each compound, together with 300 μM kainic acid, was allowed to act on the neuron for 24 hours and inhibitory action of each compound against neuronal death caused by kainic acid was evaluated.

[3] = tested on: DBA/2 mouse (audiogenic seizure); assay: audiogenic seizure inhibitory action in DBA/2 mouse; type: in vivo; details: ip, 0.25 h, intraperitoneal, 15 minutes before stimulation by sound of 12 kHz and 120 dB, male 21 to 28-day-old mice, read-out: minimum effective dose (MED), suppression of audiogenic seizure
Procedure: 3) Measurement of audiogenic seizure inhibitory action in DBA/2 mouse
Ten male 21 to 28-day-old mice were exposed to auditory and stimulation by the sound of 12 kHz and 120 dB in a sound proof box for one minute or until these mice cause tonic seizure. The test compound was suspended in a 0.5% methylcellulose solution or dissolved in physiological saline and the resulting suspension or solution was intraperitoneally administered 15 minutes before the stimulation by the sound. The drug efficacy was evaluated by presence or absence of the appearance of seizure and the minimum effective dose (MED) was determined.

[4] = solubility in phosphate buffers of pH 5, 6, 7 and 8; type: physicochemical; details: aqueous buffer
Procedure: 4) Measurement of solubility
To a 0.1M aqueous solution of potassium dihydrogenphosphate, a 0.1M aqueous solution of […] was added, whereby buffers having pH of 5, 6, 7 and 8 were prepared, respectively.
Measurement of Solubility:
About 5 mg portions of the invention compound were weighed precisely in four glass test tubes and 0.1 ml phosphate buffers having pH 5, 6, 7 and 8 were added, respectively, followed by thorough shaking. The value obtained in accordance with the following equation was taken as the solubility. [formula]

[5] = tested on: experimental animal models suffering from neuropathy, epilepsy or cerebral ischemia; details: in vivo; cited from earlier work
[6] = phosphate buffer pH 6, read-out: solubility, pH 6

Compound: C=C(C)[C@H]1CN[C@H](C(=O)O)[C@H]1CC(=O)O [kainic acid]
- affinity with the AMPA/kainate receptor (in words) (AMPA/kainate receptor): low affinity
- neuronal cell death in neuronal culture (in words) (neuronal culture system): causes marked neuronal cell death

Compound: NC1CCN(O)C1=O (stereo not shown) [HA-966]
- effect in experimental animal models of cerebral ischemia (in words) [1]: effective

Compound: O=C(O)Cn1c(=O)c(=O)[nH]c2cc([N+](=O)[O-])c(-n3ccnc3)cc21 [Example 1, 2-[2,3-dioxo-7-(1H-imidazol-1-yl)-6-nitro-1,2,3,4-tetrahydroquinoxalin-1-yl]acetic acid]
- Ki (AMPA receptor): 730 nM
- IC50 [2]: 800 nM
- minimal effective dose [3]: 3 mg/kg
- solubility ([4]; phosphate buffer pH 5, read-out: solubility, pH 5): 2490 µg/mL (≈ 7.51 mM)
- solubility [4, 6]: 2620 µg/mL (≈ 7.91 mM)
- solubility ([4]; phosphate buffer pH 7, read-out: solubility, pH 7): 3640 µg/mL (≈ 11 mM)
- solubility ([4]; phosphate buffer pH 8, read-out: solubility, pH 8): 5130 µg/mL (≈ 15.5 mM)

Compound: O=C(O)Cn1c(=O)c(=O)[nH]c2cc(C(F)(F)F)c(-n3ccnc3)cc21 [Example 9, 2-[2,3-dioxo-7-(1H-imidazole-1-yl)-6-trifluoromethyl-1,2,3,4-tetrahydroquinoxalin-1-yl]acetic acid]
- Ki (AMPA receptor): 93 nM
- IC50 [2]: 960 nM
- minimal effective dose [3]: 10 mg/kg
- solubility [4, 6]: 4100 µg/mL (≈ 11.6 mM)

Compound: O=C(O)Cn1c(=O)c(=O)[nH]c2cc(OCc3ccccc3)c(-n3ccnc3)cc21 [Example 19, 2-[6-benzyloxy-2,3-dioxo-7-(1H-imidazol-1-yl)-1,2,3,4-tetrahydroquinoxalin-1-yl]acetic acid]
- Ki (AMPA receptor): 70 nM
- IC50 [2]: 480 nM
- minimal effective dose [3]: 1 mg/kg

Compound: Cc1onc(O)c1CC(N)C(=O)O (stereo not shown) [AMPA, 2-amino-3-(3-hydroxy-5-methyl-4-isoxazolyl)propionic acid]
- affinity with the AMPA/kainate receptor (in words) (AMPA/kainate receptor): high affinity
- neuronal cell death in neuronal culture (in words) (neuronal culture system): weak

Compound: NC(CCCCCP(=O)(O)O)C(=O)O (stereo not shown) [2-amino-7-phosphonoheptanic acid]
- effect in experimental animal models of neuropathy, epilepsy or cerebral ischemia (in words) [5]: effective

Compound: NC(CCCP(=O)(O)O)C(=O)O (stereo not shown) [2-amino-5-phosphonovalerianic acid]
- effect in experimental animal models of neuropathy, epilepsy or cerebral ischemia (in words) [5]: effective

Compound: NS(=O)(=O)c1cccc2c1c([N+](=O)[O-])cc1[nH]c(=O)c(=O)[nH]c12 [NBQX]
- effect in experimental animal models of cerebral ischemia (in words) [1]: effective
